Source: patent publication US20030114385A1, “Viral enzyme activated prototoxophores and use of same to treat viral infections” (priority 2001, published 2003)
“And” between values parts separate entries of the source, which are not always exact repeats. Equal values may be shown once. Read-outs that look alike come from different tables or passages of the source. Square brackets hold non-standard residues; d marks the D form. Peptide text beside a SMILES is read from it. * marks the point of attachment. NH(4-NH2-anthraquinon-1-yl) = Nc1ccc(N*)c2c1C(=O)c1ccccc1C2=O; Cha = N[C@@H](CC1CCCCC1)C(=O)O; Abu = CC[C@H](N)C(=O)O

Experiments:
Assay type in all cases: cell-based, human
[1] = test system: CCD18co (normal colon epithelial cells)
Procedure: (§1) IC50 values of various potential HCV ECTA compounds (5761-5768) were determined using CCD 18co (normal colon epithelial cells), Det551 (skin fibroblasts), MCF7TDX (Tomudex resistant breast carcinoma cell line), HepG2 and Hep3B (hepatocellular carcinoma cell lines). Compound 5759 mimics the “released toxin” and serves as a positive control. IC50=the concentration of HCV ECTA compound that inhibits cellular growth by 50%.
(§2) Normal human colon epithelial cells (CCD18co), skin fibroblasts (Det551) Hepatocellular carcinoma cell lines (Hep3B and HepG2), breast cancer cell line (MCF7) and fibrosarcoma cell line (HT1080) were all purchased from the American Type Culture Collection (ATCC; Rockville Md.). MCF7TDX, human breast carcinoma cells resistant to 2 μM Tomudex™ have been described (ref. 98). Cells were cultured at 37° C. in 95% humidified air/5% CO2 in RPMI 1640 culture medium containing 10% fetal calf serum (Life Technologies) and penicillin/streptomycin/fungizone. MCF7TDX cells were maintained continuously in 2 μM Tomudex™. Normal cells were passaged a maximum of 15 times to avoid senescence.
(§3) The cytotoxic activity of various candidate prototoxophores was assessed by determining the IC50 value (concentration that inhibits cellular growth by 50%) in cellular proliferation assays and compared with the results obtained using the 5759 toxophore. Exponentially growing cells were transferred at a density of 1000 to 5500 cells per well to a 96 well tissue culture plate and allowed to attach for 24 hr. HCV ECTA compounds were applied in duplicate half log serial dilutions. After an additional 72 hr incubation, surviving adherent cells were washed once with PBS and stained with 0.5% crystal violet in methanol. Sorenson's buffer (0.025 M sodium citrate, 0.025 M citric acid in 50% ethanol) was added to each well and absorbance at 540 nm was monitored (absorbance at 540 nm correlates with cell survival; see refs. 103 to 105). Semi-adherent or non-adherent cells were stained with CYQUANT stain according to the protocol provided with the cell proliferation assay kit (C-7026; Molecular Probes; Eugene Oreg.). Fluorescence (485 nm excitation, 535 nm emission) was monitored. IC50 values were derived from sigmoid curves fit according to the Hill inhibitory Emax model (ref. 106).
(§4) Cells were treated with compounds 5759, 5762 or 5763 for 15 hours. After removal of the compounds, the cells were washed, incubated for a total of 72 hours and IC50 values were determined. IC50=the concentration of HCV ECTA compound that inhibits cellular growth by 50%.

[2] = test system: HepG2 (hepatocellular carcinoma cell line)
Procedure: as §1, §2, §3, §4

[3] = test system: MCF7TDX (Tomudex resistant breast carcinoma cell line)
Procedure: as §1, §2, §3
(§5) Det551 or MCF7TDX cells were treated with compounds 5759, 5761, 5763 and 5767 for 2, 6, 12, 24 and 72 hours. After the indicated times the compounds were removed, the cells were washed, incubated for a total of 72 hours and IC50 values were determined. IC50=the concentration of HCV ECTA compound that inhibits cellular growth by 50%.
as §4

[4] = test system: Det551 (skin fibroblasts)
Procedure: as §1, §2, §3, §5, §4

[5] = test system: Hep3B (hepatocellular carcinoma cell line)
Procedure: as §1, §2, §3, §4

[6] = 72 hr incubation, read-out: IC50 (concentration that inhibits cellular growth by 50%)
[7] = HepG2, 72 hr incubation, read-out: IC50 (concentration that inhibits cellular growth by 50%)
[8] = MCF7TDX, 72 hr incubation, read-out: IC50 (concentration that inhibits cellular growth by 50%)
[9] = Det551, 2 h exposure, washed, total 72 hours, read-out: IC50 after various times of drug exposure
[10] = Det551, 6 h exposure, washed, total 72 hours, read-out: IC50 after various times of drug exposure
[11] = Det551, 12 h exposure, washed, total 72 hours, read-out: IC50 after various times of drug exposure
[12] = Det551, 24 h exposure, washed, total 72 hours, read-out: IC50 after various times of drug exposure
[13] = Det551, 72 h exposure, read-out: IC50 after various times of drug exposure
[14] = Det551, 72 hr incubation, read-out: IC50 (concentration that inhibits cellular growth by 50%)
[15] = MCF7/TDX, 2 h exposure, washed, total 72 hours, read-out: IC50 after various times of drug exposure
[16] = MCF7/TDX, 6 h exposure, washed, total 72 hours, read-out: IC50 after various times of drug exposure
[17] = MCF7/TDX, 12 h exposure, washed, total 72 hours, read-out: IC50 after various times of drug exposure
[18] = MCF7/TDX, 24 h exposure, washed, total 72 hours, read-out: IC50 after various times of drug exposure
[19] = MCF7/TDX, 72 h exposure, read-out: IC50 after various times of drug exposure
[20] = 15 hours exposure, washed, total 72 hours, read-out: IC50 after 15 hour of drug exposure
[21] = HepG2, 15 hours exposure, washed, total 72 hours, read-out: IC50 after 15 hour of drug exposure
[22] = MCF7TDX, 15 hours exposure, washed, total 72 hours, read-out: IC50 after 15 hour of drug exposure
[23] = Det551, 15 hours exposure, washed, total 72 hours, read-out: IC50 after 15 hour of drug exposure

CC[C@H](NC(=O)[C@@H]1CCCN1C(=O)[C@@H](NC(=O)[C@@H](NC(=O)[C@H](CCC(=O)O)NC(=O)[C@H](CC(=O)O)NC(C)=O)C(C)C)[C@@H](C)O)C(=O)N[C@@H](CO)C(=O)NCC(=O)NCC(=O)Nc1ccc(N)c2c1C(=O)c1ccccc1C2=O [Compound 5768, Acetyl-Asp-Glu-Val-Tbr-Pro-ABA-Ser-Gly-Gly-toxin] (Ac-DEVTP[Abu]SGG-{NH(4-NH2-anthraquinon-1-yl)})
IC50 [1, 6]: 32 µM
IC50 [2, 7]: 24 µM
IC50 [3, 8]: 14 µM

CC[C@H](NC(=O)[C@H](CC(C)C)NC(=O)[C@@H](NC(=O)[C@H](C)NC(=O)[C@H](CCC(=O)O)NC(=O)[C@H](CC(=O)O)NC(C)=O)C(C)C)C(=O)N[C@@H](CO)C(=O)NCC(=O)NCC(=O)Nc1ccc(N)c2c1C(=O)c1ccccc1C2=O [Compound 5767, Acetyl-Asp-Glu-Ala-Val-Leu-ABA-Ser-Gly-Gly-toxin] (Ac-DEAVL[Abu]SGG-{NH(4-NH2-anthraquinon-1-yl)})
IC50 [1, 6]: 13.2 µM
IC50 [2, 7]: 13.8 µM
IC50 [3, 8]: 8 µM
IC50 [4, 9]: > 150 µM
IC50 [4, 10]: 13 µM
IC50 [4, 11]: 11 µM
IC50 [4, 12]: 11 µM
IC50 [4, 13]: 8 µM
IC50 [4, 14]: 5.1 µM and 8 µM

CC(=O)N[C@@H](CC(=O)O)C(=O)N[C@@H](CCC(=O)O)C(=O)N[C@H](C(=O)N[C@H](C(=O)N1CCC[C@H]1C(=O)N[C@@H](CS)C(=O)N[C@@H](CO)C(=O)NCC(=O)NCC(=O)Nc1ccc(N)c2c1C(=O)c1ccccc1C2=O)C(C)C)C(C)C [Compound 5761, Acetyl-Asp-Glu-Val-Val-Pro-Cys-Ser-Gly-Gly-toxin] (Ac-DEVVPCSGG-{NH(4-NH2-anthraquinon-1-yl)})
IC50 [1, 6]: 24.4 µM
IC50 [2, 7]: 51.1 µM
IC50 [3, 15]: > 150 µM
IC50 [3, 16]: > 150 µM
IC50 [3, 17]: 89 µM
IC50 [3, 18]: 28 µM
IC50 [3, 19]: 5 µM
IC50 [4, 9]: > 150 µM
IC50 [4, 10]: > 150 µM and 126 µM
IC50 [4, 11]: > 150 µM and 88 µM

CC[C@H](NC(=O)[C@H](CC1CCCCC1)NC(=O)[C@H](CCC(=O)O)NC(=O)[C@H](Cc1ccccc1)NC(=O)[C@H](CCC(=O)O)NC(=O)[C@H](CC(=O)O)NC(C)=O)C(=O)N[C@@H](CO)C(=O)NCC(=O)NCC(=O)Nc1ccc(N)c2c1C(=O)c1ccccc1C2=O [Compound 5766, Acetyl-Asp-Glu-Phe-Glu-Cha-ABA-Ser-Gly-Gly-toxin] (Ac-DEFE[Cha][Abu]SGG-{NH(4-NH2-anthraquinon-1-yl)})
IC50 [1, 6]: 10.2 µM
IC50 [2, 7]: 24.5 µM
IC50 [3, 8]: 8.5 µM
IC50 [4, 14]: 5.3 µM

CC(=O)N[C@@H](CC(=O)O)C(=O)N[C@@H](CCC(=O)O)C(=O)N1CCC[C@H]1C(=O)N[C@@H](CC(C)C)C(=O)N[C@@H](C)C(=O)N[C@@H](CS)C(=O)N[C@@H](CO)C(=O)NCC(=O)NCC(=O)Nc1ccc(N)c2c1C(=O)c1ccccc1C2=O [Compound 5765, Acetyl-Asp-Glu-Pro-Leu-Ala-Cys-Ser-Gly-Gly-toxin] (Ac-DEPLACSGG-{NH(4-NH2-anthraquinon-1-yl)})
IC50 [1, 6]: 28 µM and 33 µM and 38 µM
IC50 [2, 7]: 18 µM and 21 µM
IC50 [5, 6]: 25 µM and 26 µM
IC50 [4, 14]: 15 µM and 16 µM

CC(=O)N[C@@H](CC(=O)O)C(=O)N[C@@H](CCC(=O)O)C(=O)N[C@H](C(=O)N[C@H](C(=O)N1CCC[C@H]1C(=O)N[C@@H](CS)C(=O)N[C@@H](CO)C(=O)NCC(=O)NCC(=O)Nc1ccc(N)c2c1C(=O)c1ccccc1C2=O)[C@@H](C)O)C(C)C [Compound 5763, Acetyl-Asp-Glu-Val-Thr-Pro-Cys-Ser-Gly-Gly-toxin] (Ac-DEVTPCSGG-{NH(4-NH2-anthraquinon-1-yl)})
IC50 [1, 20]: 112 µM
IC50 [2, 21]: > 150 µM
IC50 [5, 20]: > 150 µM
IC50 [3, 15]: > 150 µM
IC50 [3, 16]: > 150 µM
IC50 [3, 17]: 116 µM
IC50 [3, 18]: 32 µM
IC50 [3, 19]: 7 µM
IC50 [3, 22]: 146 µM
IC50 [3, 8]: 6 µM
IC50 [4, 9]: > 150 µM
IC50 [4, 10]: 120 µM
IC50 [4, 11]: 84 µM
IC50 [4, 23]: 131 µM
IC50 [4, 12]: 48 µM
IC50 [4, 13]: 17 µM
IC50 [4, 14]: 17 µM

CC(=O)N[C@@H](CC(=O)O)C(=O)N[C@@H](CCC(=O)O)C(=O)N[C@@H](C)C(=O)N[C@H](C(=O)N[C@@H](CC(C)C)C(=O)N[C@@H](CS)C(=O)N[C@@H](CO)C(=O)NCC(=O)NCC(=O)Nc1ccc(N)c2c1C(=O)c1ccccc1C2=O)C(C)C [Compound 5762, Acetyl-Asp-Glu-Ala-Val-Leu-Cys-Ser-Gly-Gly-toxin] (Ac-DEAVLCSGG-{NH(4-NH2-anthraquinon-1-yl)})
IC50 [1, 20]: 77 µM
IC50 [2, 21]: > 150 µM
IC50 [5, 20]: > 150 µM
IC50 [3, 22]: 132 µM
IC50 [4, 23]: 46 µM
